# Laboratory results published in PubChem BioAssay (NCI).
# Several values for one entry are separate records, joined by “and”; a condition that tells them apart may be missing. Equal values may be shown once.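 Interpolation was linear, between the two tested concentrations surrounding the appropriate level; five concentrations were tested over 48 hours in 96-well plates. GI50 marks 50% less growth. TGI: concentration producing complete growth inhibition.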
# Test system: NCI-H226 lung
# Assay: growth of human tumour cells (NCI), 48 h
SMILES,GI50,TGI
N[C@H](CCC(=O)N[C@@H](Cc1c[nH]c2ccccc12)C(=O)O)C(=O)O,> 100 µM,> 100 µM
COc1ccc(-c2nc(-c3cc(OC)cc(OC)c3)[nH]c2-c2ccc(OC)cc2)cc1,5.47 µM,> 100 µM
CN(C)CCNCCN,–,> 100 µM
COC(=O)c1cc2c(o1)-c1nccc3c1c(nc1ccccc13)C2=O,8.08 µM,25.4 µM
Nc1ccccc1O.O.O=C(O)C1[O][Sb][O]C1C(=O)O (stereo not given),> 100 µM,> 100 µM
O=C(c1ccco1)c1c(C(F)(F)F)n([O-])c2ccc(C(F)(F)F)cc2[n+]1=O,0.657 µM,1.55 µM
OC(c1cc(-c2ccc(C(F)(F)F)cc2)nc(C(F)(F)F)c1)C1CCCCN1 (stereo not given),1.73 µM and 2.56 µM,3.21 µM and 6.83 µM
CCCCCCCCCCNC(=O)CI,2.19 µM,8.84 µM
CCc1ccc2c(c1)C(=O)c1c-2n(CCCN=[N+]=[N-])c(=O)c2cc([N+](=O)[O-])ccc12,> 50 µM,> 50 µM
Cc1cc(N/N=C/c2ccccn2)nc2ccccc12,0.286 µM,4.93 µM
CC1CC(O)C(=O)C(O[C@@H]2C[C@@H]3CC[C@@H]4[C@H](CC[C@]5(C)C(C6=CC(=O)OC6)CC[C@]45O)[C@@]3(C=O)C[C@H]2O)O1 (stereo not given in full),–,0.228 µM

# Test system: HCT-15 colon
# Assay: growth of human tumour cells (NCI), 48 h
SMILES,GI50,TGI [µM]
O=C1CCCN1c1ccccc1I(=O)=O,> 100 µM,> 100
COC(=O)C1=COC(C)C2CN3CCc4c([nH]c5ccccc45)C3CC12 (stereo not given),30 µM and > 100 µM,> 100
O=C(NCc1ccc(Cn2c(=O)sn(-c3ccccc3)c2=O)cc1)OCc1ccc2cccc(O)c2n1,0.298 µM,0.969
COC(c1ccc(C(C)(C)C)cc1)(c1ccc(C(C)(C)C)cc1)c1ccc(C(C)(C)C)cc1,–,> 100
CC(C)c1[nH]nc2c1N=C(c1ccccc1Cl)c1cc([N+](=O)[O-])ccc1N2,3.86 µM,> 25
Nc1cc2c(cc1Br)[nH]c(=O)c1ccccc12,4.79 µM,20.8
COc1ccc(-c2nccn2-c2ccc(OC)cc2)cc1,23.1 µM,> 67.2
O=C(/C=C/c1ccccc1)c1ccccc1,–,> 10
COc1cc2c(/C=N\N=C(N)N)c[nH]c2cc1C,35.8 µM,> 100
CC(C)[C@H](O)C(=O)N[C@@H](C)C(=O)N[C@@H]1C(=O)N(C)CCc2ccccc21,> 100 µM,> 100
C=CC(=O)N1CN(C(=O)C=C)CN(C(=O)C=C)C1,2.01 µM,4.68
ClC(Cl)=C1C(=C(Cl)Cl)C(Cl)(Cl)C1(Cl)Cl,–,3.56
C#CCOc1cccc(Nc2ncnc3c(NC(=O)C=C)cccc23)c1,12.6 µM,81.8
CO[C@H]1Nc2c(ccc(C)c2O)C(=O)N2C=C(/C=C/C(N)=O)C[C@@H]12,–,0.758
CCNC(=O)/C(=C/c1ccc(OC)cc1)c1cc(OC)c(OC)c(OC)c1,–,> 100
Cc1ccc(OCCOCCOCCOCCOc2ccc(C)n(O)c2=S)c(=S)n1O,< 0.0104 µM,> 100
COc1ccc(-c2ccc3c(N4CCOC[C@@H]4C)nc(N4CCOC[C@@H]4C)nc3n2)cc1CO,0.00526 µM and 0.0301 µM,> 100
N[C@H](CCC(=O)N[C@@H](Cc1c[nH]c2ccccc12)C(=O)O)C(=O)O,> 100 µM,> 100
COc1ccc(-c2nc(-c3cc(OC)cc(OC)c3)[nH]c2-c2ccc(OC)cc2)cc1,5.04 µM,> 100
CN(C)CCNCCN,–,> 100
COC(=O)c1cc2c(o1)-c1nccc3c1c(nc1ccccc13)C2=O,1.57 µM,11.1
Nc1ccccc1O.O.O=C(O)C1[O][Sb][O]C1C(=O)O (stereo not given),19.9 µM,57.1
O=C(c1ccco1)c1c(C(F)(F)F)n([O-])c2ccc(C(F)(F)F)cc2[n+]1=O,0.291 µM,0.749
